According to US20190031618A1, “BENZIMIDAZOLE DERIVATIVES USEFUL AS CB-1 INVERSE AGONISTS” (Janssen Pharmaceutica NV, priority 2015, published 2019):

Tested on: DIO mice
Test: Chronic DIO Mouse: food intake, body weight, plasma insulin
Format: in vivo
Conditions: for Mean Body Weight (Std Err) / Plasma Insulin (Std Err): DIO mice; for Plasma Insulin (Std Err): chronic study; for Mean Daily Food Intake: chronic DIO mouse, (Std Err)
Procedure: Male 14-20-week old diet-induced obese mice are ordered from Taconic. Mice were started on a 60% fat diet (D12492, Research Diets, New Brunswick, N.J.) at 6 weeks of age. Mice are single-housed.
DIO mice received vehicle, test compound (@ 1, 3, 10, and 30 mg/kg) daily for 26 days. At the end of the experiment, the mice were euthanized and blood and tissues were collected.
Body weight and food weight (food intake) were monitored daily for days 1-5 and twice weekly thereafter.
Blood glucose was measured from the tail vein with a Lifescan glucometer. Plasma insulin was measured with an ELISA or HTRF kit (Cisbio). Plasma parameters were measured with an Olympus clinical chemistry analyzer.

O=C(O)c1cccc(CN2CCC(n3c(C4CC4)nc4ccc(C(c5ccc(Cl)cc5)c5ccc(Cl)cc5)cc43)CC2)c1 [Example 148]
Mean Body Weight (Std Err) (3 mg/kg daily, Day 4): 41.42 (0.44) Grams
Mean Body Weight (Std Err) (3 mg/kg daily, Day 5): 41.3 (0.36) Grams
Mean Body Weight (Std Err) (3 mg/kg daily, Day 8): 39.78 (0.29) Grams
Mean Body Weight (Std Err) (3 mg/kg daily, Day 11): 39.1 (0.41) Grams
Mean Body Weight (Std Err) (3 mg/kg daily, Day 15): 40.43 (0.40) Grams
Mean Body Weight (Std Err) (3 mg/kg daily, Day 18): 39.84 (0.53) Grams
Mean Body Weight (Std Err) (3 mg/kg daily, Day 24): 40.48 (0.48) Grams
Plasma Insulin (Std Err) (3 mg/kg daily): 4.74 (0.83) ng/mL
Mean Body Weight (Std Err) (10 mg/kg daily, Day 0): 42.09 (0.85) Grams
Mean Body Weight (Std Err) (10 mg/kg daily, Day 1): 42.69 (0.74) Grams
Mean Body Weight (Std Err) (10 mg/kg daily, Day 2): 40.46 (0.66) Grams
Mean Body Weight (Std Err) (10 mg/kg daily, Day 3): 39.85 (0.68) Grams
Mean Body Weight (Std Err) (10 mg/kg daily, Day 4): 39.44 (0.70) Grams
Mean Body Weight (Std Err) (10 mg/kg daily, Day 5): 38.78 (0.70) Grams
Mean Body Weight (Std Err) (10 mg/kg daily, Day 8): 37.4 (0.67) Grams
Mean Body Weight (Std Err) (10 mg/kg daily, Day 11): 36.99 (0.78) Grams
Mean Body Weight (Std Err) (10 mg/kg daily, Day 15): 37.33 (0.84) Grams
Mean Body Weight (Std Err) (10 mg/kg daily, Day 18): 37.02 (0.88) Grams
Mean Body Weight (Std Err) (10 mg/kg daily, Day 24): 36.42 (1.25) Grams
Plasma Insulin (Std Err) (10 mg/kg daily): 2.20 (0.13) ng/mL
Mean Body Weight (Std Err) (30 mg/kg daily, Day 0): 42.46 (0.58) Grams
Mean Body Weight (Std Err) (30 mg/kg daily, Day 1): 43.13 (0.69) Grams
Mean Body Weight (Std Err) (30 mg/kg daily, Day 2): 39.64 (0.68) Grams
Mean Body Weight (Std Err) (30 mg/kg daily, Day 3): 38.53 (0.66) Grams
Mean Body Weight (Std Err) (30 mg/kg daily, Day 4): 37.46 (0.75) Grams
Mean Body Weight (Std Err) (30 mg/kg daily, Day 5): 36.67 (0.75) Grams
Mean Body Weight (Std Err) (30 mg/kg daily, Day 8): 34.95 (0.78) Grams
Mean Body Weight (Std Err) (30 mg/kg daily, Day 11): 33.79 (0.87) Grams
Mean Body Weight (Std Err) (30 mg/kg daily, Day 15): 34.19 (0.64) Grams
Mean Body Weight (Std Err) (30 mg/kg daily, Day 18): 32.47 (0.92) Grams
Mean Body Weight (Std Err) (30 mg/kg daily, Day 24): 32.86 (0.91) Grams
Plasma Insulin (Std Err) (30 mg/kg daily): 2.85 (0.27) ng/mL
Mean Daily Food Intake (1 mg/kg daily, Day 2): 2.3 (0.1) Grams
Mean Daily Food Intake (1 mg/kg daily, Day 3): 2.3 (0.1) Grams
Mean Daily Food Intake (1 mg/kg daily, Day 4): 2.2 (0.1) Grams
Mean Daily Food Intake (1 mg/kg daily, Day 5): 2.4 (0.1) Grams
Mean Daily Food Intake (1 mg/kg daily, Day 8): 2.1 (0.1) Grams
Mean Daily Food Intake (1 mg/kg daily, Day 11): 2.3 (0.1) Grams
Mean Daily Food Intake (1 mg/kg daily, Day 15): 2.4 (0.1) Grams
Mean Daily Food Intake (1 mg/kg daily, Day 18): 1.6 (0.3) Grams
Mean Daily Food Intake (1 mg/kg daily, Day 24): 2.1 (0.2) Grams
Mean Daily Food Intake (3 mg/kg daily, Day 2): 2.0 (0.2) Grams
Mean Daily Food Intake (3 mg/kg daily, Day 3): 2.0 (0.1) Grams
Mean Daily Food Intake (3 mg/kg daily, Day 4): 1.9 (0.2) Grams
Mean Daily Food Intake (3 mg/kg daily, Day 5): 1.8 (0.2) Grams
Mean Daily Food Intake (3 mg/kg daily, Day 8): 1.7 (0.1) Grams
Mean Daily Food Intake (3 mg/kg daily, Day 11): 1.8 (0.1) Grams
Mean Daily Food Intake (3 mg/kg daily, Day 15): 2.5 (0.1) Grams
Mean Daily Food Intake (3 mg/kg daily, Day 18): 2.2 (0.1) Grams
Mean Daily Food Intake (3 mg/kg daily, Day 24): 2.2 (0.1) Grams
Mean Daily Food Intake (10 mg/kg daily, Day 2): 0.5 (0.1) Grams
Mean Daily Food Intake (10 mg/kg daily, Day 3): 0.9 (0.1) Grams
Mean Daily Food Intake (10 mg/kg daily, Day 4): 1.7 (0.2) Grams
Mean Daily Food Intake (10 mg/kg daily, Day 5): 1.8 (0.2) Grams
Mean Daily Food Intake (10 mg/kg daily, Day 8): 1.7 (0.1) Grams
Mean Daily Food Intake (10 mg/kg daily, Day 11): 2.0 (0.1) Grams
Mean Daily Food Intake (10 mg/kg daily, Day 15): 2.3 (0.1) Grams
Mean Daily Food Intake (10 mg/kg daily, Day 18): 2.3 (0.1) Grams
Mean Daily Food Intake (10 mg/kg daily, Day 24): 2.2 (0.2) Grams
Mean Daily Food Intake (30 mg/kg daily, Day 2): 0.1 (0.1) Grams
Mean Daily Food Intake (30 mg/kg daily, Day 3): 0.5 (0.1) Grams
Mean Daily Food Intake (30 mg/kg daily, Day 4): 0.7 (0.1) Grams
Mean Daily Food Intake (30 mg/kg daily, Day 5): 1.0 (0.2) Grams
Mean Daily Food Intake (30 mg/kg daily, Day 8): 1.3 (0.2) Grams
Mean Daily Food Intake (30 mg/kg daily, Day 11): 1.7 (0.2) Grams
Mean Daily Food Intake (30 mg/kg daily, Day 15): 2.3 (0.1) Grams
Mean Daily Food Intake (30 mg/kg daily, Day 18): 1.8 (0.2) Grams
Mean Daily Food Intake (30 mg/kg daily, Day 24): 2.4 (0.1) Grams
